Laboratory results reported in patent publication US20230031406A1, “COMPOUNDS AND COMPOSITIONS FOR TREATING CONDITIONS ASSOCIATED WITH NLRP ACTIVITY” (Novartis AG, priority 2018, published 2023).
Where two headings read alike, the source gives them in different places.

Tested on: PMA-differentiated THP-1 cells
Experiment: IL-1β production in PMA-differentiated THP-1 cells stimulated with gramicidin (hTHP-1 assay containing 2% fetal bovine serum; Procedures 1 and 2)
Type: cell-based, human
Details: 2% fetal bovine serum
Procedure: The following protocol is suitable for testing the activity of the compounds disclosed herein. Procedure 1: IL-1β Production in PMA-Differentiated THP-1 Cells Stimulated with Gramicidin.
THP-1 cells were purchased from the American Type Culture Collection and sub-cultured according to instructions from the supplier. Cells were cultured in complete RPMI 1640 (containing 10% heat inactivated FBS, penicillin (100 units/ml) and streptomycin (100 μg/ml)), and maintained in log phase prior to experimental setup. Prior to the experiment, compounds were dissolved in dimethyl sulfoxide (DMSO) to generate a 30 mM stock. The compound stock was first pre-diluted in DMSO to 3, 0.34, 0.042 and 0.0083 mM intermediate concentrations and subsequently spotted using Echo550 liquid handler into an empty 384-well assay plate to achieve desired final concentration (e.g. 100, 33, 11, 3.7, 1.2, 0.41, 0.14, 0.046, 0.015, 0.0051, 0.0017 μM). DMSO was backfilled in the plate to achieve a final DMSO assay concentration of 0.37%. The plate was then sealed and stored at room temperature until required.
THP-1 cells were treated with PMA (Phorbol 12-myristate 13-acetate) (20 ng/ml) for 16-18 hours. On the day of the experiment the media was removed and adherent cells were detached with trypsin for 5 minutes. Cells were then harvested, washed with complete RPMI 1640, spun down, and resuspended in RPMI 1640 (containing 2% heat inactivated FBS, penicillin (100 units/ml) and streptomycin (100 μg/ml). The cells were plated in the 384-well assay plate containing the spotted compounds at a density of 50,000 cells/well (final assay volume 50 μl). Cells were incubated with compounds for 1 hour and then stimulated with gramicidin (5 μM) (Enzo) for 2 hours. Plates were then centrifuged at 340 g for 5 min. Cell free supernatant (40 μL) was collected using a 96—CHannel PlateMaster (Gilson) and the production of IL-1β was evaluated by HTRF (cisbio). The plates were incubated for 18 h at 4° C. and read using the preset HTRF program (donor emission at 620 nm, acceptor emission at 668 nm) of the SpectraMax i3x spectrophotometer (Molecular Devices, software SoftMax 6). A vehicle only control and a dose titration of CRID3 (100-0.0017 μM) were run concurrently with each experiment.
Procedure 2: IL-1β Production in PMA-Differentiated THP-1 Cells Stimulated with Gramicidin.
THP-1 cells were purchased from the American Type Culture Collection and sub-cultured according to instructions from the supplier. Prior to experiments, cells were cultured in complete RPMI 1640 (containing 10% heat inactivated FBS, penicillin (100 units/ml) and streptomycin (100 μg/ml)), and maintained in log phase prior to experimental setup. Prior to the experiment THP-1 were treated with PMA (Phorbol 12-myristate 13-acetate) (20 ng/ml) for 16-18 hours. Compounds were dissolved in dimethyl sulfoxide (DMSO) to generate a 30mM stock. On the day of the experiment the media was removed and adherent cells were detached with trypsin for 5 minutes. Cells were then harvested, washed with complete RPMI 1640, spun down, resuspended in RPMI 1640 (containing 2% heat inactivated FBS, penicillin (100 units/ml) and streptomycin (100 μg/ml). The cells were plated in a 384-well plate at a density of 50,000 cells/well (final assay volume […]). Compounds were first dissolved in assay medium to obtain a 5× top concentration of 500 μM. 10 step dilutions (1:3) were then undertaken in assay medium containing 1.67% DMSO. 5× compound solutions were added to the culture medium to achieve desired final concentration (e.g. 100, 33, 11, 3.7, 1.2, 0.41, 0.14, 0.046, 0.015, 0.0051, 0.0017 μM). Final DMSO concentration was at 0.37%. Cells were incubated with compounds for 1 hour and then stimulated with gramicidin (5 μM) (Enzo) for 2 hours. Plates were then centrifuged at 340 g for 5 min. Cell free supernatant (40 μL) was collected using a 96—CHannel PlateMaster (Gilson) and the production of IL-1β was evaluated by HTRF (cisbio). […]

[1] = Homo sapiens, THP-1, Table B2, class symbols, read-out: hTHP-1 IC50
[2] = Table B2, class symbols, read-out: hTHP-1 IC50
[3] = Homo sapiens, THP-1, Table B1, class symbols, read-out: Average IC50 of compounds in hTHP-1 assay: hTHP-1 IC50
[4] = Homo sapiens, THP-1, Table B3, hTHP-1 assay, class symbols, read-out: IC50

Question: For `NS(=O)(=NC(=O)Nc1c2c(nc(C(F)(F)F)c1C1CC1)CCC2)c1nn(C(F)F)cc1F` (single isomer, unassigned) [Example 776, (S) or (R)-N′-((3-cyclopropyl-2-(trifluoromethyl)-6,7-dihydro-5H-cyclopenta[b]pyridin-4-yl)carbamoyl)-1-(difluoromethyl)-4-fluoro-1H-pyrazole-3-sulfonimidamide], which IC50 (Table B4, class symbols, read-out: hTHP-1 IC50) is on record?
Answer: The IC50 was 5 to 30 µM.

Question: Which IC50 [1] does the source give for `CCn1ccc(S(N)(=O)=NC(=O)Nc2c3c(nc(C4CC4)c2C2CC2)CCC3)n1` (centres unmarked) [Compound 726] here?
Answer: Its IC50 is 1 to 5 µM.

Question: `CCc1cc(F)c(S(N)(=O)=NC(=O)Nc2c3c(nc4c2CC[C@H]4C)CCC3)s1` (single isomer, unassigned) [Compound 720a, (R) or (S)-5-Ethyl-3-fluoro-N′-(((R)-3-methyl-1,2,3,5,6,7-hexahydrodicyclopenta[b, e]pyridin-8-yl)carbamoyl)thiophene-2-sulfonimidamide] was tested. Which IC50 [2] did it give?
Answer: The IC50 was 0.2 to 1 µM.

Question: `CC(C)n1cc(Cl)c(S(N)(=O)=NC(=O)Nc2c3c(nc4c2CCC4)CCC3)n1` (single isomer, unassigned) [Compound 694b, (R) or (S)-4-Chloro-N′-((1,2,3,5,6,7-hexahydrodicyclopenta [b,e]pyridin-8-yl)carbamoyl)-1-isopropyl-1H-pyrazole-3-sulfonimidamide] was tested. Which IC50 [1] did it give?
Answer: Its IC50 is 1 to 5 µM.

Question: Which IC50 [2] does the source give for `Cc1c(C2CC2)nc2c(c1NC(=O)N=S(N)(=O)c1cc(C(C)(C)O)cs1)CCC2C` (single isomer, unassigned) [Compound 656d, (R, S) or (R, R) or (S, R) or (S, S)-N′-((2-Cyclopropyl-3,7-dimethyl-6,7-dihydro-5H-cyclopenta[b]pyridin-4-yl)carbamoyl)-4-(2-hydroxypropan-2-yl)thiophene-2-sulfonimidamide] here?
Answer: The IC50 was 1 to 5 µM.

Question: Which IC50 [3] does the source give for `CC(C)c1csc(S(N)(=O)=NC(=O)Nc2c3c(nc4c2CCC4)CCC3)c1` (single isomer, unassigned) [Compound 173a, (R) or (S)-N′-((1,2,3,5,6,7-hexahydrodicyclo-penta[b,e]pyridin-8-yl)carbamoyl)-4-isopropylthiophene-2-sulfonimidamide] here?
Answer: Its IC50 is 0.2 to 1 µM.

Question: How did the IC50 (Homo sapiens, THP-1, Table B2, numeric bounds, read-out: hTHP-1 IC50) turn out when `CC(C)c1cc(NC(=O)N=S(N)(=O)c2cc(C(C)(C)O)cs2)c2c(n1)CCC2` (single isomer, unassigned) [Compound 182a, (S) or (R)-4-(2-Hydroxypropan-2-yl)-N′-((2-isopropyl-6,7-dihydro-5H-cyclopenta[b]pyridin-4-yl)carbamoyl) thiophene-2-sulfonimidamide] was run?
Answer: Its IC50 is greater than 30 µM.

Question: How did the IC50 (Homo sapiens, THP-1, Table B3, hTHP-1 assay, numeric values, read-out: IC50) turn out when `Cc1c(C2(C)CC2)nc2c(c1NC(=O)N=S(N)(=O)c1cnc(C(C)(O)CO)s1)CCC2` (centres unmarked) [Example 606, 2-(1,2-Dihydroxypropan-2-yl)-N′-((3-methyl-2-(1-methylcyclopropyl)-6,7-dihydro-5H-cyclopenta[b]pyridin-4-yl)carbamoyl)thiazole-5-sulfonimidamide] was run?
Answer: The IC50 was greater than 30 µM.

Question: How did the IC50 [3] turn out when `CC(C)(O)c1nc(S(N)(=O)=NC(=O)Nc2c3c(nc4c2CCC4)CCC3)cs1` (single isomer, unassigned) [Compound 154a, (R) or (S)-N′-((1,2,3,5,6,7-hexahydrodicyclo-penta[b,e]pyridin-8-yl)carbamoyl)-2-(2-hydroxypropan-2-yl)thiazole-4-sulfonimidamide] was run?
Answer: Its IC50 is 1 to 5 µM.

Question: `CC(C)n1ccc(S(N)(=O)=NC(=O)Nc2c3c(nc4c2CCC42CC2)CCC3)n1` (centres unmarked) [Compound 172, 1-isopropyl-N′-((1′,5′,6′,7′-tetrahydro-2′H-spiro[cyclopropane-1,3′-dicyclopenta[b,e]pyridin]-8′-yl)carbamoyl)-1H-pyrazole-3-sulfonimidamide] was tested. Which IC50 [3] did it give?
Answer: The IC50 was 0.2 to 1 µM.

Question: With `Cc1nc2c(c(NC(=O)N=S(N)(=O)c3cnc(C(C)(C)O)s3)c1C(C)C)CCC2` (single isomer, unassigned) [Compound 116b, (R) or (S)-2-(2-hydroxypropan-2-yl)-N′-((3-isopropyl-2-methyl-6,7-dihydro-5H-cyclopenta[b]pyridin-4-yl)carbamoyl)thiazole-5-sulfonimidamide] as the molecule, how does the IC50 [3] read?
Answer: The IC50 was 5 to 30 µM.

Question: Which IC50 [4] does the source give for `CCn1nc(S(N)(=O)=NC(=O)Nc2c3c(nc4c2CCC42CC2)CCC3)cc1CO` (centres unmarked) [Example 589, 1-Ethyl-5-(hydroxymethyl)-N′-((1′,5′,6′,7′-tetrahydro-2′H-spiro[cyclopropane-1,3′-dicyclopenta[b,e]pyridin]-8′-yl)carbamoyl)-1H-pyrazole-3-sulfonimidamide] here?
Answer: The IC50 was 1 to 5 µM.

Question: `CC1CCc2c1nc1c(c2NC(=O)N=S(N)(=O)c2cc(C(C)(C)O)cs2)CCC1` (centres unmarked) [Compound 141, 4-(2-hydroxypropan-2-yl)-N′-((3-methyl-1,2,3,5,6,7-hexahydrodicyclopenta[b,e]pyridin-8-yl)carbamoyl)thiophene-2-sulfonimidamide] was tested. Which IC50 (Table B1, class symbols, read-out: Average IC50 of compounds in hTHP-1 assay: hTHP-1 IC50) did it give?
Answer: Its IC50 is 0.04 to 0.2 µM.

Question: How did the IC50 [4] turn out when `CCn1nc(S(N)(=O)=NC(=O)Nc2c3c(nc4c2CCC4(C)C)CCC3)cc1CO` (centres unmarked) [Example 591, N′-((3,3-dimethyl-1,2,3,5,6,7-hexahydrodicyclopenta[b,e]pyridin-8-yl)carbamoyl)-1-ethyl-5-(hydroxymethyl)-1H-pyrazole-3-sulfonimidamide] was run?
Answer: The IC50 was 1 to 5 µM.

Question: For `Cc1c(C(F)(F)F)nc2c(c1NC(=O)N=[S@](N)(=O)c1ccn(C)n1)CCC2` (single isomer, unassigned) [Compound 730a], which IC50 [1] is on record?
Answer: Its IC50 is 5 to 30 µM.

Question: With `CC(C)(O)c1cc(Cl)c(S(N)(=O)=NC(=O)Nc2c3c(nc4c2CCC4)CCC3)s1` (centres unmarked) [Compound 691, 3-Chloro-N′-((1,2,3,5,6,7-hexahydrodicyclopenta[b, e]pyridin-8-yl)carbamoyl)-5-(2-hydroxypropan-2-yl)thiophene-2-sulfonimidamide] as the molecule, how does the IC50 [1] read?
Answer: Its IC50 is 1 to 5 µM.

Question: Which IC50 (Table B2, numeric bounds, read-out: hTHP-1 IC50) does the source give for `CCC1CCc2c1nc1c(c2NC(=O)N=S(N)(=O)c2cnc(C(C)(C)O)s2)CCC1` (single isomer, unassigned) [Compound 662a, (S, S) or (S, R) or (R, S) or (R, R)-N′-((3-Ethyl-1,2,3,5,6,7-hexaliydrodicyclopenta [b,e]pyridin-8-yl)caibamoyl)-2-(2-hydroxypropan-2-yl)thiazole-5-sulfonimidamide] here?
Answer: Its IC50 is greater than 30 µM.

Question: With `CC(C)(O)c1cc(F)c([S@](N)(=O)=NC(=O)Nc2cc(CC(F)(F)F)nc3c2CCC3)s1` [Compound 602b] as the molecule, how does the IC50 [1] read?
Answer: The IC50 was 1 to 5 µM.

Question: `Cc1c(C(F)(F)F)nc2c(c1NC(=O)N=S(N)(=O)c1cnc(C(C)(O)CO)s1)CCC2` (single isomer, unassigned) [Compound 605h, (S, R) or (R, R)-2-(1,2-Dihydroxypropan-2-yl)-N′-((3-methyl-2-(trifluoromethyl)-6,7-dihydro-5H-cyclopenta[b]pyridin-4-yl)carbamoyl) thiazole-5-sulfonimidamide] was tested. Which IC50 [2] did it give?
Answer: Its IC50 is 0.2 to 1 µM.

Question: `CC(C)(O)c1csc(S(N)(=O)=NC(=O)Nc2cc(C(F)(F)F)nc3c2CCC3)c1` (centres unmarked) [Example 567, 4-(2-Hydroxypropan-2-yl)-N′-((2-(trifluoromethyl)-6,7-dihydro-5H-cyclopenta[b]pyridin-4-yl)carbamoyl)thiophene-2-sulfonimidamide] was tested. Which IC50 [4] did it give?
Answer: Its IC50 is 5 to 30 µM.
